Reference: patent US12643887B2, “Heterocyclic derivatives with cardiomyocyte proliferation activity for treatment of heart diseases” (Tongji University, priority 2019, dated 2026)
Where two headings read alike, the source gives them in different places.

Legend:
[1] = target: T1, human DYRK1A (Homo sapiens, UniProt Q13627); test: DYRK1A enzyme assay (ADP-Glo); assay type: biochemical
T1 construct: Recombinant full-length DYRK1A (expressed in E. Coli cells with an N-terminal GST tag); GST (N); purchased SignalChem D09-10G; host or cells: E. coli
Outline: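 ADP formed is quantified by luciferase luminescence (ADP-Glo) after a 60-minute, 25 °C reaction with 60 μM ATP and 20 μM DYRKtide peptide. Enzyme: 3 nM recombinant N-terminal GST DYRK1A, given 30 min compound preincubation in Tris pH 7.5/MgCl2/BSA/DTT buffer; % inhibition versus plate controls, four-parameter IC50.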

[2] = system: Neonatal Rat Ventricular Myocytes (NRVMs); test: Myocyte proliferation assay (EdU assay) in neonatal rat ventricular myocytes; assay type: cell-based; conditions: growth relative to blank myocyte growth without compound added; for Avg 1 uM (average myocyte proliferation): compound 1 uM; for Avg 3 uM (average myocyte proliferation): compound 3 uM; for Avg 10 uM (average myocyte proliferation): compound 10 uM
Outline: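 After 36 h compound exposure (1, 3 or 10 uM in 6% FBS/ITS DMEM, following 24 h low-serum culture), NRVMs were pulsed with EdU for 12 h. Proliferation scored by automated confocal imaging of EdU click chemistry, ab8295 immunostaining and DAPI nuclei in fixed cultures.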

[3] = ADP-Glo, ATP 60 μM, read-out: DYRK1A IC50

IC50 [1, 3] [nM] | SMILES | Avg 1 uM (average myocyte proliferation) [2] | Avg 3 uM (average myocyte proliferation) [2] | Avg 10 uM (average myocyte proliferation) [2] | IC50 [1] [nM]
100 to 1000 | COCCN(C1=N/C(=C\c2ccc3ncsc3c2)C(=O)N1)c1ccc2ncsc2c1 [Example 89, (Z)-2-(benzo[d]thiazol-6-yl(2-methoxyethyl)amino)-5-(benzo[d]thiazol-6-ylmethylene)-3,5-dihydro-4H-imidazol-4-one] | ** (10%-50%) | * (<10% growth relative to blank myocyte growth without compound added.) |  | 
< 100 | Cc1nc2ccc(NC3=N/C(=C\c4ccc5ncsc5c4)C(=O)N3)cc2s1 [Example 90, (Z)-5-(benzo[d]thiazol-6-ylmethylene)-2-((2-methylbenzo[d]thiazol-6-yl)amino)-3,5-dihydro-4H-imidazol-4-one] | ** (10%-50%) | ** (10%-50%) |  | 
100 to 1000 | O=C1NC(Nc2ccc3ncsc3c2)=N/C1=C\c1cncs1 [Example 92, (Z)-2-(benzo[d]thiazol-6-ylamino)-5-(thiazol-5-ylmethylene)-3,5-dihydro-4H-imidazol-4-one] | * (<10% growth relative to blank myocyte growth without compound added.) | * (<10% growth relative to blank myocyte growth without compound added.) |  | 
< 100 | Cn1cnc2ccc(NC3=N/C(=C\c4ccc5ncsc5c4)C(=O)N3)cc21 [Example 93, (Z)-5-(benzo[d]thiazol-6-ylmethylene)-2-((1-methyl-1H-benzo[d]imidazol-6-yl)amino)-3,5-dihydro-4H-imidazol-4-one] | * (<10% growth relative to blank myocyte growth without compound added.) | ** (10%-50%) |  | 
> 10000 | O=C1NC(Nc2ccc3ncsc3c2)=N/C1=C\c1ccc2cn[nH]c2c1 [Example 95, (Z)-5-((1H-indazol-6-yl)methylene)-2-(benzo[d]thiazol-6-ylamino)-3,5-dihydro-4H-imidazol-4-one] | * (<10% growth relative to blank myocyte growth without compound added.) | * (<10% growth relative to blank myocyte growth without compound added.) |  | 
> 10000 | O=C1NC(=S)N/C1=C\c1ccc2sccc2c1 [Example 96, (Z)-5-(benzo[b]thiophen-5-ylmethylene)-2-thioxoimidazolidin-4-one] | * (<10% growth relative to blank myocyte growth without compound added.) | * (<10% growth relative to blank myocyte growth without compound added.) |  | 
100 to 1000 | O=C1NC(N(Cc2ccccc2)c2ccc3ncsc3c2)=N/C1=C\c1ccc2ncsc2c1 [Example 99, (Z)-2-(benzo[d]thiazol-6-yl(benzyl)amino)-5-(benzo[d]thiazol-6-ylmethylene)-3,5-dihydro-4H-imidazol-4-one] | ** (10%-50%) | * (<10% growth relative to blank myocyte growth without compound added.) |  | 
100 to 1000 | CC(C)Nc1nc2ccc(NC3=N/C(=C\c4ccc5ncsc5c4)C(=O)N3)cc2s1 [Example 100, (Z)-5-(benzo[d]thiazol-6-ylmethylene)-2-((2-(isopropylamino)benzo[d]thiazol-6-yl)amino)-3,5-dihydro-4H-imidazol-4-one] | ** (10%-50%) | ** (10%-50%) |  | 

The next lines start with the compound.

SMILES | IC50 [1, 3] [nM] | Avg 1 uM (average myocyte proliferation) [2] | Avg 3 uM (average myocyte proliferation) [2] | Avg 10 uM (average myocyte proliferation) [2] | IC50 [1] [nM]
CCN(C1=N/C(=C\c2ccc3c(c2)OCO3)C(=O)N1)c1ccccc1 [Example 4, (Z)-5-(benzo[d][1,3]dioxol-5-ylmethylene)-2-(ethyl(phenyl)amino)-3,5-dihydro-4H-imidazol-4-one] | 100 to 1000 | ** (10%-50%) | ** (10%-50%) | ** (10%-50%) | 
CC(=O)N(C1=N/C(=C\c2ccc3c(c2)OCO3)C(=O)N1)c1ccccc1 [Example 5, (Z)—N-(4-(benzo[d][1,3]dioxol-5-ylmethylene)-5-oxo-4,5-dihydro-1H-imidazol-2-yl)-N-phenylacetamide] |  | ** (10%-50%) | ** (10%-50%) | *** (>50%) | < 100
CN(C1=N/C(=C\c2ccc3ncccc3c2)C(=O)N1)c1ccc2ncsc2c1 [Example 85, (Z)-2-(benzo[d]thiazol-6-yl(methyl)amino)-5-(quinolin-6-ylmethylene)-3,5-dihydro-4H-imidazol-4-one] | 100 to 1000 | * (<10% growth relative to blank myocyte growth without compound added.) | ** (10%-50%) |  | 
CN(C1=N/C(=C\c2ccc3ncsc3c2)C(=O)N1)c1ccc2c(c1)ncn2C [Example 86, (Z)-5-(benzo[d]thiazol-6-ylmethylene)-2-(methyl(1-methyl-1H-benzo[d]imidazol-5-yl)amino)-3,5-dihydro-4H-imidazol-4-one] | 1000 to 10000 | ** (10%-50%) | ** (10%-50%) |  | 
CN(C1=N/C(=C\c2ccc3[nH]ccc3c2)C(=O)N1)c1ccc2ncsc2c1 [Example 87, (Z)-5-((1H-indol-5-yl)methylene)-2-(benzo[d]thiazol-6-yl(methyl)amino)-3,5-dihydro-4H-imidazol-4-one] | > 10000 | ** (10%-50%) | ** (10%-50%) |  | 
CN1C(=O)/C(=C/c2ccc3ncsc3c2)N=C1Nc1ccc2ncsc2c1 [Example 88, (Z)-2-(benzo[d]thiazol-6-ylamino)-5-(benzo[d]thiazol-6-ylmethylene)-3-methyl-3,5-dihydro-4H-imidazol-4-one] | < 100 | * (<10% growth relative to blank myocyte growth without compound added.) | * (<10% growth relative to blank myocyte growth without compound added.) |  | 
CC(=O)N(C1=N/C(=C\c2ccc3ncsc3c2)C(=O)N1)c1ccc2ncsc2c1 [Example 91, (Z)—N-(benzo[d]thiazol-6-yl)-N-(4-(benzo[d]thiazol-6-ylmethylene)-5-oxo-4,5-dihydro-1H-imidazol-2-yl)acetamide] | < 100 | * (<10% growth relative to blank myocyte growth without compound added.) | * (<10% growth relative to blank myocyte growth without compound added.) |  | 
O=C1NC(Nc2ccc3ncsc3c2)=N/C1=C\c1ccc2nccnc2c1 [Example 94, (Z)-2-(benzo[d]thiazol-6-ylamino)-5-(quinoxalin-6-ylmethylene)-3,5-dihydro-4H-imidazol-4-one] |  | * (<10% growth relative to blank myocyte growth without compound added.) | * (<10% growth relative to blank myocyte growth without compound added.) |  | 
O=C1NC(Nc2ccc3nc[nH]c3c2)=N/C1=C\c1ccc2ncsc2c1 [Example 97, (Z)-2-((1H-benzo[d]imidazol-6-yl)amino)-5-(benzo[d]thiazol-6-ylmethylene)-3,5-dihydro-4H-imidazol-4-one] |  | * (<10% growth relative to blank myocyte growth without compound added.) | * (<10% growth relative to blank myocyte growth without compound added.) |  | 
Nc1ccc(NC2=N/C(=C\c3ccc4ncsc4c3)C(=O)N2)cc1 [Example 98, (Z)-2-((4-aminophenyl)amino)-5-(benzo[d]thiazol-6-ylmethylene)-3,5-dihydro-4H-imidazol-4-one] |  | ** (10%-50%) | ** (10%-50%) |  | 
O=C1NC(Nc2ccc3sccc3c2)=N/C1=C\c1ccc2ncsc2c1 [Example 101, (Z)-2-(benzo[b]thiophen-5-ylamino)-5-(benzo[d]thiazol-6-ylmethylene)-3,5-dihydro-4H-imidazol-4-one] |  | ** (10%-50%) | * (<10% growth relative to blank myocyte growth without compound added.) |  | 
